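How tested: cells in 96-well plates exposed to compound for 48 hours at five concentrations. Here, GI50 denotes the concentration required for 50% inhibition of growth.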 Active and inactive are the calls of the source. No stated cut-off is given here; in the data, active = GI50 up to about 1.1 µM and inactive = higher. Some results are limits rather than exact numbers.

Here are results for eight molecules from ChEMBL document CHEMBL1201862, “PubChem BioAssay data set” (2004).

Holding throughout (test): NCI-60 cell line screen, 48 h
Assay [1] relates to RXF 393.
The subject of assay [2] is SK-OV-3.
For assay [3], the system named is 786-0.
The test system of assay [4] is SN12C.
Assay [5] relates to HCT-116.
Assay [6] has as its system SNB-19.
Assay [7] relates to U-251.
Assay [8] has as its system EKVX.
Assay [9] has as its system RPMI-8226.
Assay [10] has as its system SF-295.
In assay [11] the test system is NCI/ADR-RES.
Assay [12] concerns OVCAR-8.
For assay [13], the system named is A498.
The test system of assay [14] is SNB-75.
Assay [15] relates to NCI-H23.
In assay [16] the test system is UO-31.
Assay [17] relates to HCC 2998.
The test system of assay [18] is TK-10.
Assay [19] deals with MOLT-4.
In assay [20] the test system is HL-60.

Take `c1n[nH]cc1C12C3C4C5C3C1C5C42` (centres undefined): the GI50 in [1], in assay [2], in assay [3], in [4], in [5] and in assay [6] was > 100 µM (inactive) in each case. The GI50 in assay [7] is > 100 µM (inactive); in [8] it was 85.7 µM (inactive); in assay [9], > 100 µM (inactive); in [10], > 100 µM (inactive); in [11] it was > 100 µM (inactive); in [12], > 100 µM (inactive). Further, the GI50 in [13] was > 100 µM (inactive); in assay [14] it was 69.2 µM (inactive); in assay [15], > 100 µM (inactive); in assay [16] it was > 100 µM (inactive); in assay [17], > 100 µM (inactive); in assay [18], > 100 µM (inactive). Also, the GI50 in assay [19] was > 100 µM (inactive); in [20], 75.9 µM (inactive).

Take `CCOC(=O)C(=Cc1ccccc1Cl)C(=O)OCC`: the GI50 in [1] is 1.61 µM (inactive); in assay [2], 5.26 µM (inactive); in [3], 1.34 µM (inactive); in assay [4], 1.6 µM (inactive); in assay [5], 0.558 µM (active); in assay [6], 1.84 µM (inactive). Further, the GI50 is 1.63 µM (inactive) in [7]; 3.03 µM (inactive) in assay [8]; 1.56 µM (inactive) in [9]; 2.47 µM (inactive) in assay [10]; 2 µM (inactive) in assay [11]; 0.938 µM (active) in assay [12]. In addition, the GI50 in assay [13] was 2.92 µM (inactive); in assay [14] it was 0.0174 µM (active); in assay [15], 1.66 µM (inactive); in assay [16], 1.71 µM (inactive); in assay [17], > 10 µM (inactive); in assay [19], 2.52 µM (inactive). Also, the GI50 in assay [20] was 1.23 µM (inactive).

As to `Cc1ccc(NC(c2ccccc2)P(=O)(c2ccccc2)c2ccccc2)cc1` (centres undefined), the GI50 in assay [1] was 47.1 µM (inactive); in assay [2] it was > 100 µM (inactive); in assay [3] it was 95.1 µM (inactive); in assay [4] it was > 100 µM (inactive); in assay [5] it was > 100 µM (inactive); in assay [6], 53.7 µM (inactive). For the same molecule, the GI50 in assay [7] is > 100 µM (inactive); in assay [8], > 100 µM (inactive); in [9], > 100 µM (inactive); in assay [10], 29.9 µM (inactive); in [11], > 100 µM (inactive); in assay [12], > 100 µM (inactive). The GI50 in assay [13] was > 100 µM (inactive); in [14], 13.7 µM (inactive); in [15], > 100 µM (inactive); in assay [16] it was > 100 µM (inactive); in assay [17], > 100 µM (inactive); in assay [18] it was > 100 µM (inactive). The GI50 is > 100 µM (inactive) in [19] and 34 µM (inactive) in assay [20].

Consider `CC1(C)N=[N+]([O-])C1(C)C`, for which the GI50 in [1], in assay [2], in assay [3], in assay [4], in assay [5] and in [6] was > 100 µM (inactive) each time. The GI50 in assay [7], in assay [8], in assay [9], in [11], in assay [12] and in [13] was > 100 µM (inactive) each time. Besides, the GI50 in assay [14], in assay [15], in [16], in [17], in assay [18] and in [19] was > 100 µM (inactive) throughout. In assay [20], the GI50 is > 100 µM (inactive).

Consider `COc1cccc(NC(=O)c2c(N)n[nH]c2SC)c1`, for which the GI50 in assay [1], in assay [2], in assay [3], in assay [4], in assay [5] and in assay [6] was > 100 µM (inactive) in each case. Also, the GI50 in assay [7] was > 100 µM (inactive); in assay [8], > 100 µM (inactive); in assay [9] it was 84.9 µM (inactive); in [10], > 100 µM (inactive); in [11], > 100 µM (inactive); in [12] it was > 100 µM (inactive). Besides, the GI50 in [13], in [14], in assay [17], in assay [18], in assay [19] and in [20] was > 100 µM (inactive) in each case.

Regarding `C=C(Br)C[N+]12CN3CN(CN(C3)C1)C2`, the GI50 in assay [1], in assay [2], in assay [3], in assay [4], in assay [5] and in [6] was > 100 µM (inactive) each time. Further, the GI50 in assay [7], in [8], in assay [9], in [10], in assay [11] and in [12] was > 100 µM (inactive) each time. The GI50 in assay [13], in assay [14], in assay [15], in assay [16], in assay [17] and in assay [19] was > 100 µM (inactive) throughout. Also, in [20], the GI50 is > 100 µM (inactive).

`CC1CC(NN(C)C)C2(C(N)=O)C(N)=NC(=O)C12C#N` (centres undefined): the GI50 in assay [1], in assay [2], in assay [3], in assay [4], in [5] and in assay [6] was > 100 µM (inactive) throughout. The GI50 in assay [7], in [8], in assay [9], in assay [10], in assay [11] and in [12] was > 100 µM (inactive) in each case. Moreover, the GI50 in assay [13] was > 100 µM (inactive); in [14], 10 µM (inactive); in assay [15], > 100 µM (inactive); in [16] it was > 100 µM (inactive); in [17], > 100 µM (inactive); in [18], > 100 µM (inactive). For the same molecule, the GI50 in assay [19] was > 100 µM (inactive); in [20] it was > 10 µM (inactive).

Regarding `CCOC(=O)c1sc2c(c1OC(=O)c1cc(OC)c(OC)c(OC)c1)c(=O)n(-c1ccccc1)c(=S)n2-c1ccccc1`, the GI50 in assay [1] is > 100 µM (inactive); in assay [2] it was > 100 µM (inactive); in assay [3], 84.1 µM (inactive); in [4], 90.2 µM (inactive); in assay [5], > 100 µM (inactive); in assay [6], > 100 µM (inactive). Moreover, the GI50 was 49.8 µM (inactive) in assay [7]; 45.5 µM (inactive) in assay [8]; 93.1 µM (inactive) in assay [9]; > 100 µM (inactive) in assay [10]; 75.3 µM (inactive) in [11]; 74.8 µM (inactive) in [12]. Further, the GI50 was > 100 µM (inactive) in [13]; > 100 µM (inactive) in assay [14]; 53.1 µM (inactive) in [15]; 81.3 µM (inactive) in assay [17]; > 100 µM (inactive) in assay [18]; 28.4 µM (inactive) in assay [19]. Moreover, in assay [20], the GI50 was 62.8 µM (inactive).
